Laboratory results as given in patent US11512089B2, “Substituted [1,2,4]triazolo[3,4-a]phthalazines as modulators of GABAA receptor activity” (SHANGHAI SIMR BIOTECHNOLOGY CO., LTD, priority 2018, dated 2022).
In brackets after ≈: the same amount, converted by molar mass.

How the values were obtained:
[1] = target: T1, α5-GABAA receptor (Homo sapiens, UniProt P18507+P31644); assay: Whole cell patch clamp, inverse agonism efficacy on GABA-induced current in HEK-293 cells expressing α5-GABAA receptor; assay type: cell-based; conditions: HEK293; compound 100 nM, GABA 0.05 μM; ratio to reference compound Example 7 in CN106854207A in the same batch
T1 construct: expressed in transfected cells; host or cells: HEK-293 (monoclonal, stably transfected)
Protocol: The inventors used electrophysiological methods to determine the inverse agonist efficacy of the substances to be tested. The detailed procedures are as follows:
(1) Different subunits of GABAA receptors were expressed in human embryonic kidney cells 293 (HEK293). The cells were cultured in a culture medium and used as a cell model for screening potential analgesics. The α, β and γ subunits are necessary to form complete functional GABAA receptors. In this example, the inventors have established the following cell model: (a) α5 subunit (protein sequence is GenBank accession number: NM_000810.3), (33 subunit (protein sequence is GenBank accession number: NM_000814.5) and γ2 subunit (protein sequence is GenBank accession number: NM_000816.3) were expressed in HEK-293 cell line at the same time, followed by screening the monoclonal cell line. This cell line contained α5-GABAA receptor and had complete GABAA receptor function.
(2) The monoclonal stably transfected HEK-293 cells expressing α5-GABAA receptor were cultured in 10 cm culture dishes. The cells were passaged after reaching 80-90% confluence. During passaging, the culture medium was removed and discarded, 3 mL of DPBS (phosphate buffered saline, Gibco™) was added to the dishes, the dishes were shaken slightly, and DPBS was removed and discarded. 1 mL of trypsin (TrypLE Express, Gibco™) was added and the cells were digested at 37° C. for 1-2 minutes. Then 3 mL of complete medium (DMEM+10% FBS (Gibco™)) was added and the cells at the bottom of the culture dishes were dispersed. The cell suspension were transferred to a 15 mL centrifugal tube (Corning™) and then centrifuged at 200 g for 3 minutes. The supernatant was discarded, 4 mL of complete medium was added, and the cells were resuspended by gently blowing. The cell suspension was diluted by 1:5 or 1:10 for subculturing. The cell suspension was diluted by 1:12 for electrophysiology experiment, and added to a 24 well plate (Corning™) with a glass slide pre-treated with poly-D-lysine placed thereon; the experiment was initiated after the cells were adhered to the slide. The cells for electrophysiology experiment were maintained in culture for no more than 48 hours before use.
(3) Compound concentration: for screening, all compounds were diluted to a final concentration of 100 nM and the concentration of GABA was 0.05 μM. The compounds were at the concentration of 0.3 nM, 3 nM, 10 nM, 30 nM, 100 nM and 300 nM in dose-inverse agonism efficacy (%) experiment. The whole cell patch clamp technique was used in electrophysiology experiments, which can refer to the literature (I. Lecker, Y. Yin, D. S. Wang and B. A. Orser, (2013) Potentiation of GABAA receptor activity by volatile anaesthetics is reduced by α5-GABAA receptor-preferring inverse agonists, British Journal of Anaesthesia 110 (S1): i73-i81). The extracellular solution (ECS) contained: 150 mM NaCl, 5 mM KCl, 2.5 mM CaCl2, 1 mM MgCl2, 10 mM HEPES and 10 mM glucose (pH 7.4); Patch electrodes were filled with an intracellular solution containing: 140 mM CsCl, 11 mM EGTA, 10 mM HEPES, 2 mM CaCl2, 1 mM MgCl2, 4 mM MgATP, 2 mM TEA (pH 7.3). The currents were recorded by an EPC-10 amplifier and the PatchMaster software (HEKA). Patch electrodes with a resistance of 4-6 MΩ were pulled from borosilicate glass. The ALA-VC3-8PP™ system was used for extracellular administration. Separate cells that grew independently was selected for recording. During recording, the membrane voltage was clamped at −60 mV. During experiment, the cells were firstly perfused with ECS for 20 seconds. When the baseline reached to a stable state, the cells were then perfused with GABA solution. Then the current induced by GABA could be detected. After about 20 to 40 seconds, the current was stable. ECS was switched to compounds solution and the effects of the compounds were detected. At last, the perfusion solution was switched to ECS. […]

[2] = Kinetic solubility in 50 mM phosphate buffer pH 7.4; assay type: physicochemical; conditions: aqueous buffer, kinetic from dmso stock, 50 mM phosphate buffer pH 7.4, 2% DMSO, room temperature
Protocol: 50 mM phosphate buffer pH=7.4: 0.39 g of NaH2PO4.2H2O, and 1.4025 g of Na2HPO4 were weighted and placed in an erlenmeyer flask, 240 mL of water was added. The solid was dissolved and mixed thoroughly, the pH value was adjusted to 7.4 with 10M NaOH solution, and the resulting solution was transferred to a 250 mL volumetric flask, followed by adding water to the mark.
Waters e2695 HPLC high performance liquid chromatography, Mettler XSE105 analytical balance.
Firstly, a 10 mM stock solution with DMSO as the solvent was prepared, and was diluted with a diluent (ACN: PB buffer 50:50) into 1 μM-200 μM as standard solution.
Kinetic solubility. 30 μL of the stock solution was placed in a 2 mL centrifuge tube, 1470 μL of 50 mM phosphate buffer (pH 7.4) (containing DMSO at a final concentration of 2%) was added. The mixture was shaken at room temperature (1000 rpm/min) for 24 hours, and then filtered. The filtrate was tested by high performance liquid chromatography (UV).

T1 sequence (P31644 32-462): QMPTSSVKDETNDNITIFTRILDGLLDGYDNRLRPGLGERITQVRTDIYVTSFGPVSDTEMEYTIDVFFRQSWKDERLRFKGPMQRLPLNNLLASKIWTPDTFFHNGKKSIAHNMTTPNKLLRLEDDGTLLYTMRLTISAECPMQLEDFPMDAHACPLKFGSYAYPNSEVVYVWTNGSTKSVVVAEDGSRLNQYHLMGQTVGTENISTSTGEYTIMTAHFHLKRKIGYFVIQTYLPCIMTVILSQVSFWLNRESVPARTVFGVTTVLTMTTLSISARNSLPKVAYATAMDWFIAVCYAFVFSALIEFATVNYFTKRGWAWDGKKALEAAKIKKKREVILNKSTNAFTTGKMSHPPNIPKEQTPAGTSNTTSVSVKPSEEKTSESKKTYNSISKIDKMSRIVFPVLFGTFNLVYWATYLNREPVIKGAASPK
T1 sequence (P28472 26-473 partner): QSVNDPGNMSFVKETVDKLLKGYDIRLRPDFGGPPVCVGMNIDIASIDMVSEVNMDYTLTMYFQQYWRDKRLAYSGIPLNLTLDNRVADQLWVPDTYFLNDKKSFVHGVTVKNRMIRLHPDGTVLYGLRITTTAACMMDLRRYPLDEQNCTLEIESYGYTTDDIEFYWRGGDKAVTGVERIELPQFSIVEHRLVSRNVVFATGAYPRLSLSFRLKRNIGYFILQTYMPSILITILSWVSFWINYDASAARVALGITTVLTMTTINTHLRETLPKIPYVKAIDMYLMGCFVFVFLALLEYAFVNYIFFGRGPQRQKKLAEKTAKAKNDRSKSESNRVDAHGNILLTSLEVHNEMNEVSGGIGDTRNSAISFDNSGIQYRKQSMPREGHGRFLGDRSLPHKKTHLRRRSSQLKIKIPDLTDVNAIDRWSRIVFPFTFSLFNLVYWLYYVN
T1 sequence (P18507 40-467 isoform P18507-1 limits assumed): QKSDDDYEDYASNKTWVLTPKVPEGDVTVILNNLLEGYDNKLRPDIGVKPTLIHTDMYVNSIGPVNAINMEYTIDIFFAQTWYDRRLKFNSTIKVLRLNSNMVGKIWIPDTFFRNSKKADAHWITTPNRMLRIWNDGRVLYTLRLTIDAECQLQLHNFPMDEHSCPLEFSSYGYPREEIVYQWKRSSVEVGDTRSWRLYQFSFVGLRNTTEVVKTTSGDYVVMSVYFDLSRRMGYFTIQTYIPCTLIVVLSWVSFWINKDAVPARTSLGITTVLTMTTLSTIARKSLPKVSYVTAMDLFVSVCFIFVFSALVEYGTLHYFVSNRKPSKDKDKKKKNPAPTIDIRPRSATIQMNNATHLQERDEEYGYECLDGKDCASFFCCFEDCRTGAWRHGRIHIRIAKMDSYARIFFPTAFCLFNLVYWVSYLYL

Row | Structure (SMILES) | Emax at 0.1 µM [1] | solubility kinetic at 24 h [2]
1 | COCc1cc(-c2nnc3c4ccccc4c(OCc4ccc(C(=O)NC5CC(F)(F)C5)cn4)nn23)no1 [Compound 03, N-(3,3-difluoro-cyclobutyl)-6-[3-(5-methoxymethyl-isoxazol-3-yl)-[1,2,4]triazolo[3,4-a]phthalazin-6-yloxymethyl]-nicotinamide] | 92.1% | 
2 | COCc1cc(-c2nnc3c4ccccc4c(OCc4ccc(C(=O)N[C@@H](C)COC)cn4)nn23)no1 [Compound 05, (S)—N-(2-methoxy-1-methyl-ethyl)-6-[3-(5-methoxymethyl-isoxazol-3-yl)-[1,2,4]triazolo[3,4-a]phthalazin-6-yloxymethyl]-nicotinamide] | 90% | 25.6 µg/mL (≈ 50.7 µM)
3 | COCc1cc(-c2nnc3c4ccccc4c(OCc4ccc(C(=O)NC[C@@H]5CCCO5)cn4)nn23)no1 [Compound 06, (S)-6-[3-(5-methoxymethyl-isoxazol-3-yl)-[1,2,4]triazolo[3,4-a]phthalazin-6-yloxymethyl]-N-(tetrahydro-furan-2-ylmethyl)-nicotinamide] | 74.9% | 13.6 µg/mL (≈ 26.4 µM)
4 | COCCNC(=O)c1ccc(COc2nn3c(-c4cc(COC)on4)nnc3c3ccccc23)nc1 [Compound 07, N-(2-methoxy-ethyl)-6-[3-(5-methoxymethyl-isoxazol-3-yl)-[1,2,4]triazolo[3,4-a]phthalazin-6-yloxymethyl]-nicotinamide] | 108% | 23.2 µg/mL (≈ 47.4 µM)
5 | COCCCNC(=O)c1ccc(COc2nn3c(-c4cc(COC)on4)nnc3c3ccccc23)nc1 [Compound 08, 6-[3-(5-methoxymethyl-isoxazol-3-yl)-[1,2,4]triazolo[3,4-a]phthalazin-6-yloxymethyl]-N-(3-methoxy-propyl)-nicotinamide] | 110% | 
6 | COCc1cc(-c2nnc3c4ccccc4c(OCc4ccc(C(=O)NC(C)COC)cn4)nn23)no1 (stereo not shown) [Compound 10, N-(2-methoxy-1-methyl-ethyl)-6-[3-(5-methoxymethyl-isoxazol-3-yl)-[1,2,4]triazolo[3,4-a]phthalazin-6-yloxymethyl]-nicotinamide] | 103% | 18.9 µg/mL (≈ 37.6 µM)
7 | COCc1cc(-c2nnc3c4ccccc4c(OCc4ccc(C(=O)NC5COC5)cn4)nn23)no1 [Compound 17, 6-[3-(5-methoxymethyl-isoxazol-3-yl)-[1,2,4]triazolo[3,4-a]phthalazin-6-yloxymethyl]-N-oxetan-3-yl-nicotinamide] | 105% | 
8 | COCc1cc(-c2nnc3c4ccccc4c(OCc4ccc(C(=O)NCC5COC5)cn4)nn23)no1 [Compound 18] | 115% | 10.8 µg/mL (≈ 21.4 µM)
9 | COCc1cc(-c2nnc3c4ccccc4c(OCc4ccc(C(=O)NCC5(C)COC5)cn4)nn23)no1 [Compound 20, N-((3-methyl(oxetanyl)-methyl)-6-{3-[5(methoxymethyl)isoxazol-3-yl]-[1,2,4]triazole[3,4-a]phthalazin-6-oxy)methylene}nicotinamide] | 118% | 10.1 µg/mL (≈ 19.7 µM)
10 | COCc1cc(-c2nnc3c4ccccc4c(OCc4ccc(C(=O)NC5CCC5)cn4)nn23)no1 [Compound 23] | 73.7% | 9.11 µg/mL (≈ 18.8 µM)
11 | COCc1cc(-c2nnc3c4ccccc4c(OCc4ccc(C(=O)NCCC#N)cn4)nn23)no1 [Compound 28, N-(2-cyano-ethyl)-6-[3-(5-methoxymethyl-isoxazol-3-yl)-[1,2,4]triazolo[3,4-a]phthalazin-6-yloxymethyl]-nicotinamide] | 133% | 3.68 µg/mL (≈ 7.6 µM)
12 | COCc1cc(-c2nnc3c4ccccc4c(OCc4ccc(C(=O)NC(COC)COC)cn4)nn23)no1 [Compound 30] | 85.2% | 6.85 µg/mL (≈ 12.8 µM)
13 | COCc1cc(-c2nnc3c4ccccc4c(OCc4ccc(C(=O)NC56CC(C5)C6)cn4)nn23)no1 [Compound 31] | 95.1% | 4.19 µg/mL (≈ 8.42 µM)
14 | COCc1cc(-c2nnc3c4ccccc4c(OCc4ccc(C(=O)NC5CN(C(C)=O)C5)cn4)nn23)no1 [Compound 32] | 89.1% | 29.7 µg/mL (≈ 56.3 µM)
15 | COCc1cc(-c2nnc3c4ccccc4c(OCc4ccc(C(=O)N5CC6(COC6)C5)cn4)nn23)no1 [Compound 39] | 90.2% | 48.5 µg/mL (≈ 94.3 µM)
16 | COCc1cc(-c2nnc3c4ccccc4c(OCc4ccc(C(=O)N(C)CC5CC5)cn4)nn23)no1 [Compound 40] | 78.3% | 31.9 µg/mL (≈ 63.9 µM)
17 | COCc1cc(-c2nnc3c4ccccc4c(OCc4ccc(C(=O)N5C[C@@H]6C[C@H]5CO6)cn4)nn23)no1 [Compound 43] | 86.9% | 100 µg/mL (≈ 195 µM)
18 | COCc1cc(-c2nnc3c4ccccc4c(OCc4ccc(C(=O)N5CCC(O)CC5)cn4)nn23)no1 [Compound 45] | 88.4% | 6.93 µg/mL (≈ 13.4 µM)
19 | COCc1cc(-c2nnc3c4ccccc4c(OCc4ccc(C(=O)N5CC(F)(F)C5)cn4)nn23)no1 [Compound 46, (3,3-difluoroazetidin-1-yl)(6-(((3-(5-(methoxymethyl)isoxazol-3-yl)[1,2,4]triazolo[3,4-a]phthalazin-6-yl)oxy)methyl)pyridin-3-yl)methanone] | 94.6% | 
20 | COCc1cc(-c2nnc3c4ccccc4c(OCc4ccc(C(=O)N5CCOCC5C)cn4)nn23)no1 (stereo not shown) [Compound 47, (6-(((3-(5-(methoxymethyl)isoxazol-3-yl)-[1,2,4]triazolo[3,4-a]phthalazin-6-yl)oxy)methyl)pyridin-3-yl)(3-methylmorpholino)methanone] | 72.5% | 97.8 µg/mL (≈ 190 µM)
21 | COCc1cc(-c2nnc3c4ccccc4c(OCc4ccc(C(=O)N5CCCC5)cn4)nn23)no1 [Compound 48] | 78.7% | 31.7 µg/mL (≈ 65.3 µM)
22 | COCc1cc(-c2nnc3c4ccccc4c(OCc4ccc(C(=O)N5CCCCC5)cn4)nn23)no1 [Compound 49, (6-(((3-(5-(methoxymethyl)isoxazol-3-yl)-[1,2,4]triazolo[3,4-a]phthalazin-6-yl)oxy)methyl)pyridin-3-yl)(piperidin-1-yl)methanone] | 75.2% | 
23 | COCc1cc(-c2nnc3c4ccccc4c(OCc4ccc(C(=O)N5CCOC(C)C5)cn4)nn23)no1 (stereo not shown) [Compound 54] | 77.5% | 97.9 µg/mL (≈ 190 µM)
24 | COCc1cc(-c2nnc3c4ccccc4c(OCc4ccc(C(=O)N5CCC6(CC5)COC6)cn4)nn23)no1 [Compound 56, {6-[3-(5-methoxymethyl-isoxazol-3-yl)-[1,2,4]triazolo[3,4-a]phthalazin-6-yloxymethyl]-pyridin-3-yl}-(2-oxa-7-aza-spiro[3.5]non-7-yl)-methanone] | 111% | 12.5 µg/mL (≈ 23.1 µM)
